Assay results reported in patent US9113629B2, “4-amino-6-(4-substituted-phenyl)-picolinates and 6-amino-2-(4-substituted-phenyl)-pyrimidine-4-carboxylates and their use as herbicides” (DOW AGROSCIENCES LLC, priority 2013, dated 2015).

system: Key Grass and Sedge Weeds as well as Grass Crops; assay: Post-emergent Test II herbicidal activity (Table 6); format: in vivo; conditions: Triticum aestivum, post-emergence, 336 h, TRZSS (wheat), application rate 70 g ai/ha, read-out: Visual Growth Reduction (%) 14 Days After Application, TRZSS
Procedure, shortened: (§1)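 Plants grown in Metro-Mix 360 (pH 6.0–6.8) in a greenhouse (~15 h photoperiod, 23–29 °C day) to first or second true leaf stage, then sprayed with compound in acetone/DMSO/aqueous crop-oil-surfactant carrier at 187 L/ha by track sprayer. Injury visually scored 0–100% versus untreated plants after 14 d.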

Row | SMILES | pest or weed control at 70 g/ha [%]
1 | C#Cc1ccc(-c2nc(C(=O)OC)c(C=C)c(N)c2F)cc1 [Compound 60, methyl 4-amino-6-(4-ethynylphenyl)-5-fluoro-3-vinylpicolinate] | 0 to 29

same assay, conditions: Triticum aestivum, post-emergence, 336 h, TRZSS (wheat), application rate 140 g ai/ha, read-out: Visual Growth Reduction (%) 14 Days After Application, TRZSS

Row | SMILES | pest or weed control at 140 g/ha [%]
2 | C#Cc1ccc(-c2nc(C(=O)OC)c(C=C)c(N)c2F)cc1 [Compound 60, methyl 4-amino-6-(4-ethynylphenyl)-5-fluoro-3-vinylpicolinate] | 0 to 29

same assay, conditions: post-emergence, 336 h, CYPES: yellow nutsedge (Cyperus esculentus), application rate 70 g ai/ha, read-out: Visual Growth Reduction (%) 14 Days After Application, CYPES

Row | SMILES | pest or weed control at 70 g/ha [%]
3 | C#Cc1ccc(-c2nc(C(=O)OC)c(C=C)c(N)c2F)cc1 [Compound 60, methyl 4-amino-6-(4-ethynylphenyl)-5-fluoro-3-vinylpicolinate] | 0 to 29

same assay, conditions: post-emergence, 336 h, CYPES: yellow nutsedge (Cyperus esculentus), application rate 140 g ai/ha, read-out: Visual Growth Reduction (%) 14 Days After Application, CYPES

Row | SMILES | pest or weed control at 140 g/ha [%]
4 | C#Cc1ccc(-c2nc(C(=O)OC)c(C=C)c(N)c2F)cc1 [Compound 60, methyl 4-amino-6-(4-ethynylphenyl)-5-fluoro-3-vinylpicolinate] | 0 to 29

same assay, conditions: post-emergence, 336 h, DIGSA: crabgrass (Digitaria sanguinalis), application rate 70 g ai/ha, read-out: Visual Growth Reduction (%) 14 Days After Application, DIGSA

Row | SMILES | pest or weed control at 70 g/ha [%]
5 | C#Cc1ccc(-c2nc(C(=O)OC)c(C=C)c(N)c2F)cc1 [Compound 60, methyl 4-amino-6-(4-ethynylphenyl)-5-fluoro-3-vinylpicolinate] | 0 to 29

same assay, conditions: post-emergence, 336 h, DIGSA: crabgrass (Digitaria sanguinalis), application rate 140 g ai/ha, read-out: Visual Growth Reduction (%) 14 Days After Application, DIGSA

Row | SMILES | pest or weed control at 140 g/ha [%]
6 | C#Cc1ccc(-c2nc(C(=O)OC)c(C=C)c(N)c2F)cc1 [Compound 60, methyl 4-amino-6-(4-ethynylphenyl)-5-fluoro-3-vinylpicolinate] | 0 to 29

same assay, conditions: post-emergence, 336 h, ECHCG: barnyardgrass (Echinochloa crus-galli), application rate 70 g ai/ha, read-out: Visual Growth Reduction (%) 14 Days After Application, ECHCG

Row | SMILES | pest or weed control at 70 g/ha [%]
7 | C#Cc1ccc(-c2nc(C(=O)OC)c(C=C)c(N)c2F)cc1 [Compound 60, methyl 4-amino-6-(4-ethynylphenyl)-5-fluoro-3-vinylpicolinate] | 0 to 29

same assay, conditions: post-emergence, 336 h, ECHCG: barnyardgrass (Echinochloa crus-galli), application rate 140 g ai/ha, read-out: Visual Growth Reduction (%) 14 Days After Application, ECHCG

Row | SMILES | pest or weed control at 140 g/ha [%]
8 | C#Cc1ccc(-c2nc(C(=O)OC)c(C=C)c(N)c2F)cc1 [Compound 60, methyl 4-amino-6-(4-ethynylphenyl)-5-fluoro-3-vinylpicolinate] | 0 to 29

same assay, conditions: post-emergence, 336 h, ORYSA: rice (Oryza sativa), application rate 70 g ai/ha, read-out: Visual Growth Reduction (%) 14 Days After Application, ORYSA

Row | SMILES | pest or weed control at 70 g/ha [%]
9 | C#Cc1ccc(-c2nc(C(=O)OC)c(C=C)c(N)c2F)cc1 [Compound 60, methyl 4-amino-6-(4-ethynylphenyl)-5-fluoro-3-vinylpicolinate] | 0 to 29

same assay, conditions: post-emergence, 336 h, ORYSA: rice (Oryza sativa), application rate 140 g ai/ha, read-out: Visual Growth Reduction (%) 14 Days After Application, ORYSA

Row | SMILES | pest or weed control at 140 g/ha [%]
10 | C#Cc1ccc(-c2nc(C(=O)OC)c(C=C)c(N)c2F)cc1 [Compound 60, methyl 4-amino-6-(4-ethynylphenyl)-5-fluoro-3-vinylpicolinate] | 0 to 29

same assay, conditions: post-emergence, 336 h, SETFA: giant foxtail (Setaria faberi), application rate 70 g ai/ha, read-out: Visual Growth Reduction (%) 14 Days After Application, SETFA

Row | SMILES | pest or weed control at 70 g/ha [%]
11 | C#Cc1ccc(-c2nc(C(=O)OC)c(C=C)c(N)c2F)cc1 [Compound 60, methyl 4-amino-6-(4-ethynylphenyl)-5-fluoro-3-vinylpicolinate] | 0 to 29

same assay, conditions: post-emergence, 336 h, SETFA: giant foxtail (Setaria faberi), application rate 140 g ai/ha, read-out: Visual Growth Reduction (%) 14 Days After Application, SETFA

Row | SMILES | pest or weed control at 140 g/ha [%]
12 | C#Cc1ccc(-c2nc(C(=O)OC)c(C=C)c(N)c2F)cc1 [Compound 60, methyl 4-amino-6-(4-ethynylphenyl)-5-fluoro-3-vinylpicolinate] | 0 to 29

same assay, conditions: post-emergence, 336 h, SORVU: grain sorghum (Sorghum vulgare), application rate 70 g ai/ha, read-out: Visual Growth Reduction (%) 14 Days After Application, SORVU

Row | SMILES | pest or weed control at 70 g/ha [%]
13 | C#Cc1ccc(-c2nc(C(=O)OC)c(C=C)c(N)c2F)cc1 [Compound 60, methyl 4-amino-6-(4-ethynylphenyl)-5-fluoro-3-vinylpicolinate] | 0 to 29

same assay, conditions: post-emergence, 336 h, SORVU: grain sorghum (Sorghum vulgare), application rate 140 g ai/ha, read-out: Visual Growth Reduction (%) 14 Days After Application, SORVU

Row | SMILES | pest or weed control at 140 g/ha [%]
14 | C#Cc1ccc(-c2nc(C(=O)OC)c(C=C)c(N)c2F)cc1 [Compound 60, methyl 4-amino-6-(4-ethynylphenyl)-5-fluoro-3-vinylpicolinate] | 0 to 29

same assay, conditions: post-emergence, 336 h, ZEAMX: maize, corn (Zea mays), application rate 70 g ai/ha, read-out: Visual Growth Reduction (%) 14 Days After Application, ZEAMX

Row | SMILES | pest or weed control at 70 g/ha [%]
15 | C#Cc1ccc(-c2nc(C(=O)OC)c(C=C)c(N)c2F)cc1 [Compound 60, methyl 4-amino-6-(4-ethynylphenyl)-5-fluoro-3-vinylpicolinate] | 0 to 29

same assay, conditions: post-emergence, 336 h, ZEAMX: maize, corn (Zea mays), application rate 140 g ai/ha, read-out: Visual Growth Reduction (%) 14 Days After Application, ZEAMX

Row | SMILES | pest or weed control at 140 g/ha [%]
16 | C#Cc1ccc(-c2nc(C(=O)OC)c(C=C)c(N)c2F)cc1 [Compound 60, methyl 4-amino-6-(4-ethynylphenyl)-5-fluoro-3-vinylpicolinate] | 0 to 29

system: Key Broadleaf Weed and Crop Species; assay: Post-emergent Test II herbicidal activity (Table 5); format: in vivo; conditions: post-emergence, 336 h; ABUTH: velvetleaf (Abutilon theophrasti); 70 g ai/ha; post-emergent; 14 days after application; read-out: Visual Growth Reduction (%) 14 Days After Application ABUTH
Procedure, shortened: as §1

Row | SMILES | pest or weed control at 70 g/ha [%]
17 | C#Cc1ccc(-c2nc(C(=O)OC)c(C=C)c(N)c2F)cc1 [Compound 60, methyl 4-amino-6-(4-ethynylphenyl)-5-fluoro-3-vinylpicolinate] | 0 to 29

same assay, conditions: post-emergence, 336 h; ABUTH: velvetleaf (Abutilon theophrasti); 140 g ai/ha; post-emergent; 14 days after application; read-out: Visual Growth Reduction (%) 14 Days After Application ABUTH

Row | SMILES | pest or weed control at 140 g/ha [%]
18 | C#Cc1ccc(-c2nc(C(=O)OC)c(C=C)c(N)c2F)cc1 [Compound 60, methyl 4-amino-6-(4-ethynylphenyl)-5-fluoro-3-vinylpicolinate] | 0 to 29

same assay, conditions: post-emergence, 336 h; AMARE: redroot pigweed (Amaranthus retroflexus); 70 g ai/ha; post-emergent; 14 days after application; read-out: Visual Growth Reduction (%) 14 Days After Application AMARE

Row | SMILES | pest or weed control at 70 g/ha [%]
19 | C#Cc1ccc(-c2nc(C(=O)OC)c(C=C)c(N)c2F)cc1 [Compound 60, methyl 4-amino-6-(4-ethynylphenyl)-5-fluoro-3-vinylpicolinate] | 0 to 29

same assay, conditions: post-emergence, 336 h; AMARE: redroot pigweed (Amaranthus retroflexus); 140 g ai/ha; post-emergent; 14 days after application; read-out: Visual Growth Reduction (%) 14 Days After Application AMARE

Row | SMILES | pest or weed control at 140 g/ha [%]
20 | C#Cc1ccc(-c2nc(C(=O)OC)c(C=C)c(N)c2F)cc1 [Compound 60, methyl 4-amino-6-(4-ethynylphenyl)-5-fluoro-3-vinylpicolinate] | 0 to 29

same assay, conditions: post-emergence, 336 h; BRSNN: oilseed-rape, canola (Brassica napus); 70 g ai/ha; post-emergent; 14 days after application; read-out: Visual Growth Reduction (%) 14 Days After Application BRSNN

Row | SMILES | pest or weed control at 70 g/ha [%]
21 | C#Cc1ccc(-c2nc(C(=O)OC)c(C=C)c(N)c2F)cc1 [Compound 60, methyl 4-amino-6-(4-ethynylphenyl)-5-fluoro-3-vinylpicolinate] | 0 to 29

same assay, conditions: post-emergence, 336 h; BRSNN: oilseed-rape, canola (Brassica napus); 140 g ai/ha; post-emergent; 14 days after application; read-out: Visual Growth Reduction (%) 14 Days After Application BRSNN

Row | SMILES | pest or weed control at 140 g/ha [%]
22 | C#Cc1ccc(-c2nc(C(=O)OC)c(C=C)c(N)c2F)cc1 [Compound 60, methyl 4-amino-6-(4-ethynylphenyl)-5-fluoro-3-vinylpicolinate] | 0 to 29

same assay, conditions: post-emergence, 336 h; CHEAL: lambsquarters (Chenopodium album); 70 g ai/ha; post-emergent; 14 days after application; read-out: Visual Growth Reduction (%) 14 Days After Application CHEAL

Row | SMILES | pest or weed control at 70 g/ha [%]
23 | C#Cc1ccc(-c2nc(C(=O)OC)c(C=C)c(N)c2F)cc1 [Compound 60, methyl 4-amino-6-(4-ethynylphenyl)-5-fluoro-3-vinylpicolinate] | 0 to 29

same assay, conditions: post-emergence, 336 h; CHEAL: lambsquarters (Chenopodium album); 140 g ai/ha; post-emergent; 14 days after application; read-out: Visual Growth Reduction (%) 14 Days After Application CHEAL

Row | SMILES | pest or weed control at 140 g/ha [%]
24 | C#Cc1ccc(-c2nc(C(=O)OC)c(C=C)c(N)c2F)cc1 [Compound 60, methyl 4-amino-6-(4-ethynylphenyl)-5-fluoro-3-vinylpicolinate] | 0 to 29

same assay, conditions: post-emergence, 336 h; EPHHL: wild poinsettia (Euphorbia heterophylla); 70 g ai/ha; post-emergent; 14 days after application; read-out: Visual Growth Reduction (%) 14 Days After Application EPHHL

Row | SMILES | pest or weed control at 70 g/ha [%]
25 | C#Cc1ccc(-c2nc(C(=O)OC)c(C=C)c(N)c2F)cc1 [Compound 60, methyl 4-amino-6-(4-ethynylphenyl)-5-fluoro-3-vinylpicolinate] | 0 to 29

same assay, conditions: post-emergence, 336 h; EPHHL: wild poinsettia (Euphorbia heterophylla); 140 g ai/ha; post-emergent; 14 days after application; read-out: Visual Growth Reduction (%) 14 Days After Application EPHHL

Row | SMILES | pest or weed control at 140 g/ha [%]
26 | C#Cc1ccc(-c2nc(C(=O)OC)c(C=C)c(N)c2F)cc1 [Compound 60, methyl 4-amino-6-(4-ethynylphenyl)-5-fluoro-3-vinylpicolinate] | 0 to 29

same assay, conditions: post-emergence, 336 h; HELAN: sunflower (Helianthus annuus); 70 g ai/ha; post-emergent; 14 days after application; read-out: Visual Growth Reduction (%) 14 Days After Application HELAN

Row | SMILES | pest or weed control at 70 g/ha [%]
27 | C#Cc1ccc(-c2nc(C(=O)OC)c(C=C)c(N)c2F)cc1 [Compound 60, methyl 4-amino-6-(4-ethynylphenyl)-5-fluoro-3-vinylpicolinate] | 45 to 59

same assay, conditions: post-emergence, 336 h; HELAN: sunflower (Helianthus annuus); 140 g ai/ha; post-emergent; 14 days after application; read-out: Visual Growth Reduction (%) 14 Days After Application HELAN

Row | SMILES | pest or weed control at 140 g/ha [%]
28 | C#Cc1ccc(-c2nc(C(=O)OC)c(C=C)c(N)c2F)cc1 [Compound 60, methyl 4-amino-6-(4-ethynylphenyl)-5-fluoro-3-vinylpicolinate] | 75 to 84

same assay, conditions: post-emergence, 336 h; VIOTR: wild pansy (Viola tricolor); 70 g ai/ha; post-emergent; 14 days after application; read-out: Visual Growth Reduction (%) 14 Days After Application VIOTR

Row | SMILES | pest or weed control at 70 g/ha [%]
29 | C#Cc1ccc(-c2nc(C(=O)OC)c(C=C)c(N)c2F)cc1 [Compound 60, methyl 4-amino-6-(4-ethynylphenyl)-5-fluoro-3-vinylpicolinate] | 0 to 29

same assay, conditions: post-emergence, 336 h; VIOTR: wild pansy (Viola tricolor); 140 g ai/ha; post-emergent; 14 days after application; read-out: Visual Growth Reduction (%) 14 Days After Application VIOTR

Row | SMILES | pest or weed control at 140 g/ha [%]
30 | C#Cc1ccc(-c2nc(C(=O)OC)c(C=C)c(N)c2F)cc1 [Compound 60, methyl 4-amino-6-(4-ethynylphenyl)-5-fluoro-3-vinylpicolinate] | 0 to 29
